Where a SMILES comes first, the peptide text is derived from it. [ ]: non-standard residue; d: D form. The star is where a group is joined. ξ: configuration not given here. Cbz = O=C(OCc1ccccc1)*; ξV = CC(C)C(N)C(=O)O; CF3 = FC(F)(F)*; Moc = COC(=O)*
How the values were obtained:
[1] = molecular target: T1, Neutrophil elastase (Homo sapiens, UniProt P08246); experiment: Binding affinity for human leukocyte elastase
T1 sequence (P08246 whole entry): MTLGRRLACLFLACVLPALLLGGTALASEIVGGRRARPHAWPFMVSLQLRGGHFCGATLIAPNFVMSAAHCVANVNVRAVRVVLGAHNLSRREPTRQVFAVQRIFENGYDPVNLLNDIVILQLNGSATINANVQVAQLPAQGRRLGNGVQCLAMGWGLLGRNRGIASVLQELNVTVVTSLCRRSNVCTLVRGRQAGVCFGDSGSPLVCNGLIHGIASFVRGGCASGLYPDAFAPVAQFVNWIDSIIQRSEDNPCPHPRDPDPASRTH

[2] = system: Cricetinae gen. sp.; experiment: Percent inhibition of elastase-induced lung damage by 10 mg/kg dosed orally, 30 minutes prior to the instillation of 50 ug of elastase; format: functional, Cricetulus griseus; details: Cricetinae gen. sp., po
[3] = system: Cricetinae gen. sp.; experiment: Effective dose in the Acute Hemarrhagic Assay model after oral administration; format: functional, Cricetulus griseus

Row | Ki [1] [nM] | SMILES | inhibition in vivo at 10 mg/kg [2] [%] | ED50 [3] [mg/kg]
1 | 3.1 | COc1ccc(C(=O)N[C@H](C(=O)N2CCC[C@H]2C(=O)N[C@H](C(=O)C(F)(F)C(=O)NCc2ccccn2)C(C)C)C(C)C)cc1 | 43 | 
2 | 43 | CCOC(=O)N[C@H](C(=O)N1CCC[C@H]1C(=O)N[C@H](C(=O)C(F)(F)F)C(C)C)C(C)C | 74 | 
3 | 1.1 | CCCCOC(=O)NCC(F)(F)C(=O)[C@@H](NC(=O)[C@@H]1CCCN1C(=O)[C@@H](NC(=O)OCc1ccccc1)C(C)C)C(C)C | 0 | 
4 | 5.8 | CC(C)OC(=O)N[C@H](C(=O)N1CCC[C@H]1C(=O)N[C@H](C(=O)C(F)(F)F)C(C)C)C(C)C | 80 | 3
5 | 33 | CC(C)OC(=O)N[C@H](C(=O)N1CCC[C@H]1C(=O)NC(C(=O)C(F)(F)F)C(C)C)C(C)C (stereo partly specified) | 69 | 
6 | 0.58 | COC(=O)c1ccc2oc(C(=O)[C@@H](NC(=O)[C@@H]3CCCN3C(=O)[C@@H](NC(=O)OCc3ccccc3)C(C)C)C(C)C)nc2c1 | 34 | 
7 | 58 | COc1ccc(C(=O)N[C@H](C(=O)N2CCC[C@H]2C(=O)N[C@@H](C(=O)C(F)(F)C(=O)NCc2ccccn2)C(C)C)C(C)C)cc1 | 31 | 
8 | 3.8 | CNC(=O)C(F)(F)C(=O)[C@@H](NC(=O)[C@@H]1CCCN1C(=O)[C@@H](NC(=O)c1ccc(OC)cc1)C(C)C)C(C)C | 25 | 
9 | 1.5 | CC(C)[C@H](NC(=O)Oc1ccccc1)C(=O)N1CCC[C@H]1C(=O)N[C@H](C(=O)C(F)(F)F)C(C)C | 93 | 
10 | 0.64 | COC(=O)c1ccc2oc(C(=O)[C@@H](NC(=O)[C@@H]3CCCN3C(=O)[C@@H](NC(=O)Oc3ccccc3)C(C)C)C(C)C)nc2c1 | 12 | 
11 | 2.3 | CC(=O)NCC(F)(F)C(=O)[C@@H](NC(=O)[C@@H]1CCCN1C(=O)[C@@H](NC(=O)Oc1ccccc1)C(C)C)C(C)C | 42 | 
12 | 8.9 | CCCNC(=O)C(F)(F)C(=O)[C@@H](NC(=O)[C@@H]1CCCN1C(=O)[C@@H](NC(=O)c1ccc(OC)cc1)C(C)C)C(C)C | 17 | 
13 | 3.4 | CCCCOC(=O)NCC(F)(F)C(=O)[C@@H](NC(=O)[C@@H]1CCCN1C(=O)[C@@H](NC(=O)c1ccc(OC)cc1)C(C)C)C(C)C | 24 | 
14 | 20 | CC(C)COC(=O)N[C@H](C(=O)N1CCC[C@H]1C(=O)N[C@H](C(=O)C(F)(F)F)C(C)C)C(C)C | 3 | 
15 | 17 | CC(C)[C@H](NC(=O)COc1ccccc1)C(=O)N1CCC[C@H]1C(=O)N[C@H](C(=O)C(F)(F)F)C(C)C | 8 | 
16 | 0.65 | COC(=O)c1ccc2oc(C(=O)[C@@H](NC(=O)[C@@H]3CCCN3C(=O)[C@@H](NC(=O)c3ccc(OC)cc3)C(C)C)C(C)C)nc2c1 | 0 | 
17 | 1.7 | CC(C)[C@H](NC(=O)Oc1ccccc1)C(=O)N1CCC[C@H]1C(=O)N[C@H](C(=O)C(F)(F)C(=O)NCc1ccccn1)C(C)C | 69 | 
18 | 0.35 | CCCCOC(=O)NCC(F)(F)C(=O)[C@@H](NC(=O)[C@@H]1CCCN1C(=O)[C@@H](NC(=O)Oc1ccccc1)C(C)C)C(C)C | 0 | 
19 | 0.35 | CC(C)[C@H](NC(=O)Oc1ccccc1)C(=O)N1CCC[C@H]1C(=O)N[C@H](C(=O)C(F)(F)CNC(=O)c1cccnc1)C(C)C | 46 | 
20 | 6.4 | COc1ccc(C(=O)N[C@H](C(=O)N2CCC[C@H]2C(=O)N[C@H](C(=O)C(F)(F)CNC(=O)c2ccccc2)C(C)C)C(C)C)cc1 | 18 | 
21 | 8 | COc1ccc(C(=O)N[C@H](C(=O)N2CCC[C@H]2C(=O)N[C@H](C(=O)c2nc3cc(NC(C)=O)ccc3o2)C(C)C)C(C)C)cc1 | 11 | 

Second part, the compound before the results:

Row | SMILES | Ki [1] [nM] | inhibition in vivo at 10 mg/kg [2] [%] | ED50 [3] [mg/kg]
22 | CC(C)[C@H](NC(=O)OC1CCCC1)C(=O)N1CCC[C@H]1C(=O)N[C@H](C(=O)C(F)(F)F)C(C)C | 1.9 | 43 | 
23 | COc1ccc(C(=O)N[C@H](C(=O)N2CCC[C@H]2C(=O)N[C@H](C(=O)C(F)(F)F)C(C)C)C(C)C)cc1 (stereo in doubt; 1a) |  | 70 | 
24 | CC(C)[C@H](NC(=O)OCc1ccccc1)C(=O)N1CCC[C@H]1C(=O)N[C@H](C(=O)C(F)(F)CNCc1ccccc1)C(C)C |  | 0 | 
25 | CC(C)[C@H](NC(=O)OCc1ccccc1)C(=O)N1CCC[C@H]1C(=O)N[C@H](C(=O)C(F)(F)C(N)=O)C(C)C |  | 17 | 
26 | CC(C)[C@H](NC(=O)OCc1ccccc1)C(=O)N1CCC[C@H]1C(=O)N[C@H](C(=O)C(F)(F)F)C(C)C (Cbz-Val-Pro-Val-CF3) |  | 42 | 
27 | CC(C)[C@H](NC(=O)Oc1ccccc1)C(=O)N1CCC[C@H]1C(=O)N[C@H](C(=O)C(F)(F)CNCc1ccccc1)C(C)C |  | 18 | 
28 | CC(C)[C@H](NC(=O)[C@@H]1CCCN1C(=O)[C@@H](NC(=O)OCc1ccccc1)C(C)C)C(=O)c1nc2ccccc2o1 | 4.7 | 0 | 
29 | CC(C)[C@H](NC(=O)Oc1ccccc1)C(=O)N1CCC[C@H]1C(=O)N[C@H](C(=O)C(F)(F)CN)C(C)C |  | 45 | 
30 | CNC(=O)C(F)(F)C(=O)[C@@H](NC(=O)[C@@H]1CCCN1C(=O)[C@@H](NC(=O)Oc1ccccc1)C(C)C)C(C)C |  | 80 | 
31 | CNC(=O)C(F)(F)C(=O)[C@@H](NC(=O)[C@@H]1CCCN1C(=O)[C@@H](NC(=O)OCc1ccccc1)C(C)C)C(C)C |  | 7 | 
32 | COc1ccc(C(=O)N[C@H](C(=O)N2CCC[C@H]2C(=O)N[C@H](C(=O)C(F)(F)CNCc2ccccc2)C(C)C)C(C)C)cc1 |  | 17 | 
33 | COC(=O)c1ccc2nc(C(=O)[C@@H](NC(=O)[C@@H]3CCCN3C(=O)[C@@H](NC(=O)Oc3ccccc3)C(C)C)C(C)C)oc2c1 | 0.64 | 27 | 
34 | CC(C)[C@H](NC(=O)c1ccc(C(=O)NS(=O)(=O)c2ccccc2)cc1)C(=O)N1CCC[C@H]1C(=O)N[C@H](C(=O)C(F)(F)C(=O)NCCc1ccccc1)C(C)C | 0.06 |  | 
35 | COc1ccc(C(=O)N[C@H](C(=O)N2CCC[C@H]2C(=O)N[C@H](C(=O)C(F)(F)CN)C(C)C)C(C)C)cc1 |  | 10 | 
36 | COC(=O)N[C@H](C(=O)N1CCC[C@H]1C(=O)NC(C(=O)C(F)(F)F)C(C)C)C(C)C (stereo partly drawn) (Moc-Val-Pro-[ξV]-CF3) |  | 92 | 
